Source: US7972793B2, “Methods and compositions for the treatment of psychotic disorders through the identification of the SULT4A1-1 haplotype” (Suregene, LLC, priority 2009, dated 2011)
Like-named read-outs stand apart in the source and are kept apart here. Marks after values point to notes of the source that are not given here.

Tests used:
[1] = system: CATIE African American schizophrenia patients; test: CATIE drug response: change in total PANSS (LOCF), segmented by SULT4A1-1 status, African Americans; type: in vivo, human
Procedure: The design of the CATIE study has been described in detail by others (Lieberman et al., 2005; Stroup et al., 2003). […] A total of 738 subjects consented to provide DNA for genetic study. […] Retrospective genetic analyses, judged to be exempt from human studies requirements by an IRB, were conducted in the current study. All tested patients were studied using well established clinical endpoints comparing baseline, intermediate, and last observation carried forward (LOCF) for the PANSS scores using CATIE data. […] To remove time on drug as a variable for the CATIE trial, analysis was limited to only those patients who were randomized to a different drug following the initial washout period (drug switchers).

[2] = system: CATIE Caucasian schizophrenia patients; test: Time to discontinuation for all causes in the CATIE study; type: in vivo, human
Source text: The primary endpoint for the CATIE study was time to discontinuation for all causes (Lieberman et al., 2005). Thus the inventors evaluated the effect of SULT41-1 status on this important parameter.

[3] = system: CATIE Caucasian subjects; test: Rate of hospitalization due to exacerbation of psychosis in CATIE by SULT4A1-1 status; type: in vivo, human; conditions: CATIE Phases 1, 2 and/or 3
Source text: For this analysis, the inventors assigned a dichotomous value (positive or negative) for hospitalization status to subjects in each phase of the trial based on only the first hospitalization event for a given patient in that phase.

[4] = system: CATIE patients; test: Kaplan-Meier survival (no hospitalization event) analysis, SULT4A1-1 negative vs positive; type: in vivo, human; conditions: FIG. 8
Procedure: A Kaplan-Meier survival analysis was performed to determine whether there was a difference between the survival (hospitalization) rates for the SULT4A1-1 negative and SULT4A1-1 positive patient populations treated with each of the atypical antipsychotics. Survival plots model the fraction of the population that survived (i.e., no hospitalization event) as a function of time.

[5] = system: CATIE Phase I non-responders; conditions: CATIE Phase II, LOCF; for Responders (number): decrease PANSS ≧ 20%
[6] = system: patients, populations not segmented by SULT4A1-1 status; conditions: meta-analysis, Leucht et al. (2009); negative = greater reduction in PANSS; cited from earlier work
[7] = system: patients, unsegmented populations; conditions: first generation antipsychotics; Davis et al. (2003); cited from earlier work
[8] = system: patients, unsegmented populations; conditions: Meta-analysis, Leucht et al. (2009); cited from earlier work
[9] = system: CATIE Caucasian schizophrenia patients; test: CATIE Phase 1 drug response: change in total PANSS (LOCF), drug switchers, segmented by SULT4A1-1 status; type: in vivo, human; conditions: for ≦−20% (number of individuals with this percent change in total PANSS; responders) / ≧−20% (number of individuals with this percent change in total PANSS; non-responders): CATIE Caucasians, LOCF
Source text: There are several different metrics for quantifying response in clinical trials of antipsychotic medications. The most commonly used psychometric instrument is the Positive and Negative Syndrome Scale (PANSS), a 30-item semi-quantitative instrument scored by clinical professionals (Kay et al., 1987). The greater the decrease in PANSS score, the better the clinical response. The most direct measure of clinical response is absolute change in PANSS score. In addition to absolute change, the improvement is often reported as a percentage change from baseline PANSS score.
A decrease of at least 20% in total PANSS is one commonly used threshold for response (Leucht et al., 2009).
The design of the CATIE study has been described in detail by others (Lieberman et al., 2005; Stroup et al., 2003). […] A total of 738 subjects consented to provide DNA for genetic study. […] Retrospective genetic analyses, judged to be exempt from human studies requirements by an IRB, were conducted in the current study.
All tested patients were studied using well established clinical endpoints comparing baseline, intermediate, and last observation carried forward (LOCF) for the PANSS scores using CATIE data. LOCF analysis is a commonly used clinical endpoint for clinical trials for neuropsychiatric drugs, with changes in PANSS scores of between negative 20% and negative 30% used as typical endpoints to indicate clinically significant response (Leucht et al., 2009). To remove time on drug as a variable for the CATIE trial, analysis was limited to only those patients who were randomized to a different drug following the initial washout period (drug switchers).
As mentioned previously, the mean change in absolute or percent PANSS provides an important measure of efficacy in patients undergoing antipsychotic treatments. Indeed, many pivotal trials in the psychosis field used absolute and/or percentage change in PANSS Score as the primary endpoint (Leucht et al., 2009). […] Therefore, in addition to examining a categorical definition of clinically significant response, the inventors determined the impact of segmentation by SULT4A1-1 status on the quantitative measure of clinical improvement—delta PANSS.

[10] = Table 16, 20% decrease in PANSS threshold, SULT4A1-1 positive group (sign not given)

Row | Compound | ≦−20% (number of individuals; responders) ([1]; SULT4A1-1 Negative) | ≧−20% (number of individuals; non-responders) ([1]; SULT4A1-1 Negative) | ≦−20% (number of individuals; responders) ([1]; SULT4A1-1 Positive) | ≧−20% (number of individuals; non-responders) ([1]; SULT4A1-1 Positive) | Time to discontinuation, mean time in months ([2]; SULT4A1-1 Negative) | HOSP (number of subjects hospitalized) ([3]; SULT4A1-1 Positive) | HOSP (number of subjects hospitalized) ([3]; SULT4A1-1 negative) | HOSP (number of subjects hospitalized) ([3]; Unsegmented) | Difference between survival (no hospitalization) rates of SULT4A1-1 negative and SULT4A1-1 positive patients [4] | Effect Size vs. Placebo [6] | Effect Size vs. FGA [7] | Mean Difference in Total PANSS Score, Olanzapine vs. labelled drug [8] | other results
1 | Cc1nc2n(c(=O)c1CCN1CCC(c3noc4cc(F)ccc34)CC1)CCCC2 [Risperidone] | 7 | 34 | 3 | 2 | 11.3 Months | 4 | 16 | 20 | not statistically significant | −0.59 | −0.25 | −1.9 | Responders ([1]; SULT4A1-1 Positive, change in total PANSS ≦−20%): 60%; Time to discontinuation, mean time in months ([2]; SULT4A1-1 Positive): 8.0*** Months; HOSP (rate of hospitalization) ([3]; SULT4A1-1 Positive): (11.1%); HOSP (rate of hospitalization) ([3]; SULT4A1-1 negative): (13%); HOSP (rate of hospitalization) ([3]; Unsegmented): (12.6%); Nonresponders (number) ([5]; SULT4A1-1 Negative): 8; Responders (number) ([5]; SULT4A1-1 Negative): 4; % Responders ([5]; SULT4A1-1 Positive): 0%; Nonresponders (number) ([5]; SULT4A1-1 Positive): 1; Responders (number) ([5]; SULT4A1-1 Positive): 0
2 | O=C1Cc2cc(CCN3CCN(c4nsc5ccccc45)CC3)c(Cl)cc2N1 [Ziprasidone] | 4 | 22 | 0 | 3 | 8.2*** Months | 2 | 11 | 13 | not statistically significant | −0.48 | −0.04 | −8.3 | Mean Difference in Total PANSS Score, Olanzapine vs. labelled drug ([9]; CATIE SULT4A1-1 −): −2.1; Mean Difference in Total PANSS Score, Olanzapine vs. labelled drug ([9]; CATIE unsegmented): −4.9; ≦−20% (number of individuals with this percent change in total PANSS; responders) ([9]; SULT4A1-1 Negative): 6; ≧−20% (number of individuals with this percent change in total PANSS; non-responders) ([9]; SULT4A1-1 Negative): 32; ≦−20% (number of individuals with this percent change in total PANSS; responders) ([9]; SULT4A1-1 Positive): 3; ≧−20% (number of individuals with this percent change in total PANSS; non-responders) ([9]; SULT4A1-1 Positive): 7; Non Responder (number) [9, 10]: 7; Responder (number) [9, 10]: 3
